Here are results for 15 compounds from patent US10653780B2, “Amino lipids and methods for the delivery of nucleic acids” (ARBUTUS BIOPHARMA CORPORATION, priority 2008, dated 2020).

The subject of this data set is Factor VII (FVII). Particulars: for survival: 15 mg/kg dose, mice. From the text: It is well established that in vivo RNAi silencing of specific hepatocyte proteins can be achieved following intravenous (i.v.) administration of siRNA's encapsulated in, or associated with, select nanoparticles designed for intracellular delivery. […] In this Example, rational design in combination with in vivo screening were applied to systematically modify the structure of DLinDMA and identify molecular features that enhance or reduce cationic lipid potency. More than 30 lipids were synthesized and incorporated into nucleic acid-lipid particles, i.e., lipid nanoparticles (LN) encapsulating an siRNA (LN-siRNA) targeting Factor VII (FVII), a blood clotting component synthesized and secreted by hepatocytes that is readily measured in serum. LN-siRNA systems were prepared using the same process, lipid molar ratios and particle size to minimize effects on activity resulting from formulation characteristics other than the cationic lipid. Each formulation was administered as a single bolus injection over a range of doses enabling an estimate of the siRNA dose required to reduce FVII serum protein concentrations by 50% after 24 h (ED50).
FVII activity was evaluated in FVII siRNA-treated animals at 24 hours after intravenous (bolus) injection in C57BL/6 mice or 48 hours after intravenous (bolus) injection in SD rats. Six to 8 week old, female C57Bl/6 mice were obtained from Charles River Laboratories and acclimated for one week prior to use in studies. Animals were held in a pathogen-free environment and all procedures involving animals were performed in accordance with the guidelines established by the Canadian Council on Animal Care.
LN-siRNA systems containing Factor VII siRNA were diluted to the appropriate concentrations in sterile phosphate buffered saline immediately prior to use, and the formulations were administered intravenously via the lateral tail vein in a total volume of 10 ml/kg. After 24 h, animals were anaesthetised with Ketamine/Xylazine and blood was collected by cardiac puncture and processed to serum (Microtainer Serum Separator Tubes; Becton Dickinson, Franklin Lakes, N.J., USA). Serum was tested immediately or stored at −70° C. for later analysis for serum Factor VII levels.
FVII was measured using a commercially available kit (Biophen FVII Kit™; Aniara Corp., Mason, Ohio), following the manufacturer's instructions at a microplate scale. FVII reduction was determined against untreated control animals, and the results were expressed as % Residual FVII. Five dose levels (0.1, 0.3, 0.5, 1.0, and 3.0 mg/kg) were typically used.
Serum Factor VII levels were determined using the colorimetric Biophen VII assay kit (Anaira, USA). Briefly, serially diluted pooled control serum (200%-3.125%) and appropriately diluted plasma samples from treated animals were analyzed using the Biophen VII kit according to manufacturer's instructions in 96-well, flat bottom, non-binding polystyrene assay plates (Corning, Corning, N.Y.) and absorbance at 405 nm was measured. A calibration curve was generated using the serial diluted control serum and used to determine levels of Factor VII in serum from treated animals.
Initial studies were performed in eight to 10 week old, female C57BL/6 mice in two stages. In the first stage, the activity associated with the benchmark lipid DLinDMA was compared to the activity associated with modified forms of DLinDMA.

Setting [1] is: Table 3, siRNA dose reducing serum FVII protein by 50% at 24 h, single i.v. bolus, PFV LN-siRNA 40/10/40/10.
Where [2] appears, read: Table 8, FVII ED50 of the LN-siRNA system.
Setting [3] is: siRNA dose reducing serum FVII protein by 50% at 24 h, PFV LN-siRNA 40/10/40/10.
[4] abbreviates: Table 6, siRNA dose reducing serum FVII protein by 50% at 24 h, PFV LN-siRNA 40/10/40/10.
Where [5] appears, read: Table 5, siRNA dose reducing serum FVII protein by 50% at 24 h, PFV LN-siRNA 40/10/40/10.
Where [6] appears, read: Table 7, siRNA dose reducing serum FVII protein by 50% at 24 h, PFV LN-siRNA 40/10/40/10.

Like-named read-outs stand apart in the source and are kept apart here. Marks after values point to notes of the source that are not given here. Some results are limits rather than exact numbers.

As to `CCCCC/C=C\C/C=C\CCCCCCCCOCC(CN1CCOCC1)OCCCCCCCC/C=C\C/C=C\CCCCC` (stereo not drawn) [DLinMA, 1,2-Dilinoleyloxy-3-morpholinopropane], the ED50 (as a rule, the midpoint of the dose-response relation) by setting is: under setting [1], 12 to 25 mg/kg; under setting [2], 12 to 25 mg/kg; under setting [3], 12 to 25 mg/kg.

Consider `CCCCC/C=C\C/C=C\CCCCCCCCC1(CCCCCCCC/C=C\C/C=C\CCCCC)OCC([N+](C)(C)C)O1.[Cl-]` (stereo not drawn) [DLin-K-TMA.Cl, 2,2-Dilinoleyl-4-trimethylamino-[1,3]-dioxolane Chloride], for which the survival result is reported as “lethal”. Also, the FVII activity entry (5 mg/kg) was “No activity observed”. In addition, the body weight result (5 mg/kg, data not shown) is recorded as “significant weight loss”. Further, the FVII activity entry (5 mg/kg, listed as DLin-K-TMA) is given as “No activity was observed”. Also, the survival result (listed as DLin-K-TMA) was “did not survive”. Under setting [4], the ED50 was >5^a mg/kg.

`CCCCCCCC/C=C\CCCCCCCC(=O)OCC(CN(C)C)OC(=O)CCCCCCC/C=C\CCCCCCCC` (stereo not drawn) [DODAP, 1,2-dioleoyl-3-dimethylammonium propane, reference compound]: under setting [5], the ED50 is reported as more than 25 mg/kg. Moreover, the “fold less active than DLinDMA” value (mouse FVII model) was “more than 25 fold”.

`CCCCC/C=C\C/C=C\CCCCCCCC(=O)OCC(C[N+](C)(C)C)OC(=O)CCCCCCC/C=C\C/C=C\CCCCC.[Cl-]` (stereo not drawn) [DLinTAP.Cl]: under setting [5], the ED50 is recorded as more than 25 mg/kg.

As to “1,2-Dilinoleyloxy-3-(2-N,N-dimethylamino) ethoxypropane [DLin-EG-DMA]”, under setting [1], the ED50 lay in the range of 5 to 12 mg/kg.

With `CCCCCCCC/C=C\CCCCCCCC(=O)OCC(C[N+](C)(C)C)OC(=O)CCCCCCC/C=C\CCCCCCCC.[Cl-]` (stereo not drawn) [DOTAP.Cl, 1,2-Dioleyloxy-3-trimethylaminopropane chloride salt, reference compound], the ED50 under setting [5] is listed as more than 25 mg/kg.

As to `CCCCCCCCCCCCCCCCCCC1(CCCCCCCCCCCCCCCCCC)OCC(CN(C)C)O1` (stereo not drawn) [DS-K-DMA], the ED50 runs as follows: under setting [6], approximately 8.0 mg/kg; under setting [3], approximately 8.0 mg/kg.

As to `CCCCC/C=C\C/C=C\CCCCCCCCC1(CCCCCCCC/C=C\C/C=C\CCCCC)OC(CN(C)C)C(CN(C)C)O1` (stereo not drawn) [DLin-K^2-DMA, 2,2-Dilinoleyl-4,5-bis(dimethylaminomethyl)-[1,3]-dioxolane], under setting [4], the ED50 is approximately 0.4 mg/kg.

For `CCCCC/C=C\C/C=C\CCCCCCCCC(CCCCCCCC/C=C\C/C=C\CCCCC)OC(=O)CCN(C)C` [DLin-M-DMA, Dilinoleylmethyl 3-Dimethylaminopropionate], the ED50 is, setting by setting: under setting [6], approximately 0.7 mg/kg; under setting [3], approximately 0.7 mg/kg.

Regarding `CCCCC/C=C\C/C=C\CCCCCCCCOCC(COC(=O)CN(C)C)OCCCCCCCC/C=C\C/C=C\CCCCC` (stereo not drawn) [DLinDAC, 1,2-Dilinoleyloxy-3-(dimethylamino) acetoxypropane], the ED50 lay in the range of 5 to 12 mg/kg under setting [1] and 12 to 25 mg/kg under setting [2].

Regarding `CCCC/C=C\CCCCCCCC(=O)OCC(CN(C)C)OC(=O)CCCCCCC/C=C\CCCC` (stereo not drawn) [DMDAP], for the setting “10 mg/kg maximum dose”, the “FVII activity at maximum dose tested” value was “no activity was observed”. For the same compound, the ED50 under setting [5] is more than 10 mg/kg.

Regarding “2,2-dilinoleyl-4-N-morpholino-[1,3]-dioxolane [DLin-K-MA]”, the “FVII activity at maximum dose tested” value (15 mg/kg maximum dose) is “inactive”. The ED50 under setting [4] was more than 15 mg/kg. In addition, under “Table 11”, the “FVII ED50” value is listed as more than 15 mg/kg.

Take `CCCCCCCC/C=C\CCCCCCCCNC(=O)OCC(CN(C)C)OC(=O)NCCCCCCCC/C=C\CCCCCCCC` (stereo not drawn) [DO-C-DAP]: the “FVII activity at maximum dose tested” value (10 mg/kg maximum dose) is “inactive”. For the same compound, the ED50 under setting [5] was more than 10 mg/kg.

As for `CCCCC/C=C\C/C=C\CCCCCCCCOCC(CN1CCN(C)CC1)OCCCCCCCC/C=C\C/C=C\CCCCC` (stereo not drawn) [DLinMPZ, 1,2-Dilinoleyloxy-3-(N-methylpiperazino) propane], the ED50 is, setting by setting: under setting [1], 2 to 5 mg/kg; under setting [2], 2 to 5 mg/kg.

With `CCCCC/C=C\C/C=C\CCCCCCCCN(CCCCCCCC/C=C\C/C=C\CCCCC)CC(O)CO` (stereo not drawn) [DLinAP], the ED50 was in the range of 5 to 12 mg/kg under setting [5], 5 to 12 mg/kg under setting [2] and 5 to 12 mg/kg under setting [3].
